Experimental data published in patent USRE38330E1, “Preventing and reversing advanced glycosylation endproducts” (Alteon Inc., priority 1995, dated 2003).

Tested on: fixed protein (gelatin, i.e., collagen) surface
Assay: Surface browning experiment on gelatin/paper disks in glucose-6-phosphate
Conditions: 100 mM glucose-6-phosphate, one week at 50° C., final concentration of 0.04% chlorhexidine (Peridex)
Description: To further study the ability of inhibitors of nonenzymatic browning to prevent the discoloration of protein on a surface, such as that which occurs on the tooth surface, the following surface browning experiment is performed. As a substitute for a pellicle-covered tooth surface, unexposed and developed photographic paper is used to provide a fixed protein (gelatin, i.e., collagen) surface on a paper backing. […] Glucose-6-phosphate is a sugar capable of participating in nonenzymatic browning at a more rapid rate than glucose. In addition to the glucose-6-phosphate, chlorhexidine and/or a compound of Formula I are included. After incubation, the gelatin/paper disks are rinsed with water, observed for brown color, and photographed.

## [H]/N=C(\N/C(=N/[H])NCCCCCCNC(=N)NC(=N)Nc1ccc(Cl)cc1)Nc1ccc(Cl)cc1 [chlorhexidine]
  brown color of gelatin/paper disks: significant browning
